Reference: patent publication US20250295660A1, “METHODS OF TREATING NF1-MUTANT TUMORS USING LSD1 INHIBITORS” (ORYZON GENOMICS, S.A., priority 2022, published 2025)

How the values were obtained:
Assay type in all cases: cell-based
[1] = tested on: NCIH510A (SCLC) cell line; assay: Cell viability of NF1-mutant tumor cell line NCIH510A (MTT or AlamarBlue); details: 10 days treatment; for EC50: Homo sapiens, NCI-H510A, 240 h, NF1 p. D2184G/p. L2618L
Procedure: (§1) Mycoplasma-free tumor cell lines from different tumor types carrying mutations in the NF1 gene (see Table 1) were seeded in 50 μl/well of complete medium (as described in Table 2, all reagents from Thermo Fisher) in 96-well plates at the optimal cell density to ensure log-phase growth throughout the duration of the experiment (see Table 2). The day after seeding, 50 μl of medium containing 9 serial dilutions (1:3) of 2×-concentrated iadademstat (LSD1 inhibitor; used as the dihydrochloride salt) were added to the cells to obtain 100 μl of cells treated with 1×-concentrated compound at each dilution. Additionally, the effect of other LSD1 inhibitors, i.e. bomedemstat (bis-tosylate salt) and pulrodemstat (besylate salt), was likewise evaluated in a subset of these tumor cell lines (sNF96.2, sNF02.2, MOLM13 and NCIH510A).
(§2) Each experimental condition was tested in technical triplicates, including medium-only wells and vehicle-treated controls for background correction and normalization, respectively. After treatment, cells were incubated at 37° C. in a humidified and controlled 5% CO2 atmosphere (see Table 2 for duration of treatment according to the growth curve of each cell line and number of cells seeded) and compound and medium refreshment was performed by adding 50 μl of medium supplemented with 1×-concentrated compound at each corresponding dilution when the duration of the treatment exceeded 4 days of drug incubation (see Table 2). After treatment, cell viability was evaluated using either the MTT assay (Sigma-Aldrich) or AlamarBlue™ Cell viability reagent (Life Technologies), following manufacturer's instructions. Background was calculated as the mean of the values of medium-only controls and subtracted from each data point. The average of background-corrected technical triplicates was calculated and normalized by the mean of vehicle-treated controls (corresponding to 100% of viability). Data were analyzed using GraphPad PRISM® version 9.0.1 (GraphPad Software, Inc., La Jolla, CA/USA) to calculate the best-fitting curves and the EC50 values (corresponding to the concentration of compound at which a half (50%) maximal effect is obtained; lower EC50 values thus indicate greater potency).

[2] = tested on: MOLM13 (AML) cell line; assay: Cell viability of NF1-mutant tumor cell line MOLM13 (MTT or AlamarBlue); details: 4 days treatment; for EC50: Homo sapiens, MOLM-13, 96 h, NF1 p. E1720D
Procedure: as §1, §2

[3] = tested on: sNF02.2 (MPNST) cell line; assay: Cell viability of NF1-mutant tumor cell line sNF02.2 (MTT or AlamarBlue); details: 6 days treatment; for EC50: 144 h, NF1 c. 4868A > T
Procedure: as §1, §2

[4] = tested on: TC71 (Ewing's sarcoma) cell line; assay: Cell viability of NF1-mutant tumor cell line TC71 (MTT or AlamarBlue); details: 6 days treatment
Procedure: as §1
(§3) Each experimental condition was tested in technical triplicates, including medium-only wells and vehicle-treated controls for background correction and normalization, respectively. […] After treatment, cell viability was evaluated using either the MTT assay (Sigma-Aldrich) or AlamarBlue™ Cell viability reagent (Life Technologies), following manufacturer's instructions. Background was calculated as the mean of the values of medium-only controls and subtracted from each data point. […]

[5] = tested on: MOLT4 (ALL) cell line; assay: Cell viability of NF1-mutant tumor cell line MOLT4 (MTT or AlamarBlue); details: 10 days treatment
Procedure: as §1, §3

[6] = tested on: NCIH446 (SCLC) cell line; assay: Cell viability of NF1-mutant tumor cell line NCIH446 (MTT or AlamarBlue); details: 10 days treatment
Procedure: as §1, §3

[7] = tested on: DAUDI (Burkitt's lymphoma) cell line; assay: Cell viability of NF1-mutant tumor cell line DAUDI (MTT or AlamarBlue); details: 4 days treatment
Procedure: as §1, §3

[8] = tested on: MPNST-NF1-18b (MPNST) cell line; assay: Cell viability of NF1-mutant tumor cell line MPNST-NF1-18b (MTT or AlamarBlue); details: 6 days treatment
Procedure: as §1, §3

[9] = tested on: hTERT ipnNF95.11c (plexiform neurofibroma) cell line; assay: Cell viability of NF1-mutant tumor cell line hTERT ipnNF95.11c (MTT or AlamarBlue); details: 7 days treatment
Procedure: as §1, §3

[10] = tested on: MHHES1 (Ewing's sarcoma) cell line; assay: Cell viability of NF1-mutant tumor cell line MHHES1 (MTT or AlamarBlue); details: 6 days treatment
Procedure: as §1, §3

[11] = tested on: sNF96.2 (MPNST) cell line; assay: Cell viability of NF1-mutant tumor cell line sNF96.2 (MTT or AlamarBlue); details: 6 days treatment
Procedure: as §1, §3

[12] = tested on: MDAMB231 (TN breast cancer) cell line; assay: Cell viability of NF1-mutant tumor cell line MDAMB231 (MTT or AlamarBlue); details: 4 days treatment
Procedure: as §1, §3

[13] = tested on: A204 (rhabdoid tumor) cell line; assay: Cell viability of NF1-mutant tumor cell line A204 (MTT or AlamarBlue); details: 6 days treatment
Procedure: as §1, §3

[14] = tested on: hTERT ipNF95.11b C (plexiform neurofibroma) cell line; assay: Cell viability of NF1-mutant tumor cell line hTERT ipNF95.11b C (MTT or AlamarBlue); details: 7 days treatment
Procedure: as §1, §3

[15] = tested on: RD (rhabdomyosarcoma) cell line; assay: Cell viability of NF1-mutant tumor cell line RD (MTT or AlamarBlue); details: 6 days treatment
Procedure: as §1, §3

CN1CCN(C(=O)[C@H](CCCN[C@@H]2C[C@H]2c2ccc(F)cc2)NC(=O)c2ccc(-n3ccnn3)cc2)CC1 [Bomedemstat, N-[(2S)-5-{[(1R,2S)-2-(4-fluorophenyl)cyclopropyl]amino}-1-(4-methylpiperazin-1-yl)-1-oxopentan-2-yl]-4-(1H-1,2,3-triazol-1-yl)benzamide]
EC50 [1]: 10.5 nM
EC50 [2]: 5.38 nM
EC50 [3]: 0.094 nM

COc1ccc(-c2c(-c3ccc(C#N)c(F)c3)nc(N3CCC(N)CC3)n(C)c2=O)cc1F [Pulrodemstat, 4-[2-(4-aminopiperidin-1-yl)-5-(3-fluoro-4-methoxyphenyl)-1-methyl-6-oxo-1,6-dihydropyrimidin-4-yl]-2-fluorobenzonitrile]
EC50 [1]: 1.73 nM
EC50 [2]: 0.82 nM
EC50 [3]: 0.166 nM

N[C@H]1CC[C@H](N[C@@H]2C[C@H]2c2ccccc2)CC1 [Iadademstat, (trans)-N1-((1R,2S)-2-phenylcyclopropyl)cyclohexane-1,4-diamine]
Response (classification according to viability reduction) [4]: Low (low response (viability reduction<15%))
Response (classification according to viability reduction) [5]: Strong (strong response (viability reduction>30%))
EC50 ([5]; Homo sapiens, MOLT-4, 240 h, NF1 p. G1502G/ NS): 0.795 nM
Response (classification according to viability reduction) [6]: Low (low response (viability reduction<15%))
Response (classification according to viability reduction) [7]: Low (low response (viability reduction<15%))
EC50 ([8]; 144 h, NF1 SNV at intron 14 + LOH): 0.025 nM
Response (classification according to viability reduction) [8]: Strong (strong response (viability reduction>30%))
EC50 ([9]; 168 h, NF1 c. 1756delACTA): 0.841 nM
Response (classification according to viability reduction) [9]: Strong (strong response (viability reduction>30%))
Response (classification according to viability reduction) [10]: Low (low response (viability reduction<15%))
EC50 ([11]; 144 h, NF1 c. 3683delC + LOH): 0.042 nM
Response (classification according to viability reduction) [11]: Strong (strong response (viability reduction>30%))
Response (classification according to viability reduction) [12]: Low (low response (viability reduction<15%))
Response (classification according to viability reduction) [13]: Strong (strong response (viability reduction>30%))
EC50 ([13]; Homo sapiens, 144 h, NF1 p. L1274F): 0.1 nM
EC50 ([14]; 168 h, NF1 c. 1756delACTA/ LOH): 0.14 nM
Response (classification according to viability reduction) [14]: Medium (medium response (viability reduction>15% and <30%))
Response (classification according to viability reduction) [1]: Strong (strong response (viability reduction>30%))
EC50 [1]: 0.16 nM
Response (classification according to viability reduction) [15]: Low (low response (viability reduction<15%))
Response (classification according to viability reduction) [2]: Strong (strong response (viability reduction>30%))
EC50 [2]: 0.158 nM
EC50 [3]: 0.02 nM
Response (classification according to viability reduction) [3]: Medium (medium response (viability reduction>15% and <30%))
